Tested on: B/C10ME fibrosarcoma
Assay: Tumor formation and GCV treatment, B/C10ME fibrosarcoma in BALB/c mice
Format: in vivo
Conditions: 2×10^7 cells s.c.; GCV 100 mg/kg daily from day 21, tumor diameter about 2 cm
Method: Tumor Formation. Confluent cultures of B/C10ME clones were harvested with trypsin-EDTA (Gibco/BRL) and washed three times in PBS. Approximately 2×10^7 viable cells were resuspended in […] of PBS. Six- to eight-week-old BALB/c mice obtained from Jackson Laboratory were subcutaneously injected with an 18-gauge needle in their right flank. Tumors were palpable within 12 days of inoculation and bi-perpendicular measurements were taken of the progressively growing tumor daily. Tumor growth was monitored by measurement of the larger and smaller diameters. At the indicated times post-injection, mice were injected with GCV daily at a dosage of 100 mg/kg of body weight for about 10 days. Tumors were judged to have regressed after losing both measurability and palpability. For each retroviral construct, multiple injections of 2 to 3 independently derived transduced clonal cell lines were performed.
Complete Eradication of Tumors in G1NaGrpTk Transduced Cells. To directly compare the therapeutic efficacy of the G1NaGrpTk vector with G1TkSvNa, B/C10ME clones transduced with the respective retroviral constructs were injected subcutaneously at a dose of 2×10^7 cells per BALB/c mouse. As controls, the parental, non-transduced cells were also injected. Tumors were palpable after 12 days of injection. At day 21, when the average tumor diameter reached about 2 cm, GCV was administered. […]

`Nc1nc(O)c2ncn(COC(CO)CO)c2n1` [GCV, ganciclovir] was tested, and the “tumor growth following GCV treatment” value was “tumors continued to grow at various rates”.
